In ChEMBL document CHEMBL5046276 (J Med Chem, 2022):
pIC50: −log10 of the molar value. Active and inactive are the calls of the source. The calls are words filed in the database; no cut-off is given here.

Columns and labels:
[1] = tested on: Plasmodium berghei; assay: Antimalarial activity against liver stage transgenic Plasmodium berghei ANKA sporozoites transfected with GFP-Luc infected in BALB/c mouse assessed as reduction in liver stage parasite infection at 30 mg/kg, iv measured for 1 to 4 days post-administration by IVIS spectrum in vivo imaging analysis; assay type: functional, organism-based; settings: time 1-4 day
[2] = tested on: Plasmodium falciparum; assay: Antimalarial activity against asexual blood stage quinine-resistant Plasmodium falcipuram C2A assessed as parasite growth inhibition incubated for 72 hrs by SYBR Green I staining based fluorescence analysis; assay type: functional, organism-based
[3] = tested on: Plasmodium falciparum; assay: Antimalarial activity against asexual blood stage wild-type Plasmodium falciparum 3D7 assessed as parasite growth inhibition incubated for 72 hrs by SYBR Green I staining based fluorescence analysis; assay type: functional, organism-based; settings: 3D7, 72 h
[4] = tested on: Plasmodium falciparum; assay: Antimalarial activity against asexual blood stage chloroquine-resistant Plasmodium falciparum Dd2 assessed as parasite growth inhibition incubated for 72 hrs by SYBR Green I staining based fluorescence analysis; assay type: functional, organism-based; settings: Dd2, 72 h
[5] = Cytotoxicity against human HepG2 cells incubated for 72 hrs by CCK-8 assay
[6] = Cytotoxicity against HEK293T cells incubated for 72 hrs by CCK-8 assay; settings: human
[7] = Metabolic stability in mouse liver microsomes assessed as half life at […] incubated for 45 mins in presence of NADPH by LC/MS analysis; assay type: ADME, Microsome; settings: microsomes, 0.75 h, 10000 µM
[8] = tested on: Plasmodium falciparum; assay: Antimalarial activity against asexual blood stage chloroquine-resistant Plasmodium falcipuram GB4 assessed as parasite growth inhibition incubated for 72 hrs by SYBR Green I staining based fluorescence analysis; assay type: functional, organism-based; settings: GB4, 72 h
[9] = Toxicity in BALB/c mouse infected with blood stage Plasmodium yoelii assessed as animal death at 60 mg/kg, ip qd for 5 days measured from day 2 post compound treatment; assay type: organism-based; settings: in vivo, 120 h, time 5 day
[10] = Toxicity in BALB/c mouse infected with blood stage Plasmodium yoelii assessed as animal death at 60 mg/kg, ip qd for 5 days and measured on day 28; assay type: organism-based; settings: in vivo, 672 h, time 28 day
[11] = Toxicity in BALB/c mouse infected with blood stage Plasmodium yoelii assessed as animal death at 30 mg/kg, ip qd for 5 days and measured upto 60 days; assay type: organism-based; settings: in vivo, 1440 h, time 60 day
[12] = tested on: Plasmodium yoelii; assay: Antimalarial activity against blood stage Plasmodium yoelii infected in BALB/c mouse assessed as parasite recrudescence by measuring parasitemia at 60 mg/kg, ip qd for 5 days and measured on 11 to 26 days; assay type: functional; settings: time 11-26 day
[13] = tested on: Plasmodium falciparum; assay: Antimalarial activity against blood stage asynchronous Plasmodium falcipuram 3D7 assessed as parasite growth inhibition by measuring parasitemia at 10 to 100 nM incubated for 12 to 24 hrs by flow cytometry; assay type: functional, organism-based; settings: dose 10-100 nM, time 12-24 hrs
[14] = tested on: Plasmodium falciparum; assay: Antimalarial activity against blood stage asynchronous Plasmodium falcipuram 3D7 assessed as parasite growth inhibition by measuring parasitemia incubated for 6 to 12 hrs followed by compound washout and replacement with fresh medium without compounds and measured after 4 days by flow cytometry; assay type: functional, organism-based; settings: dose 10-100 nM, time 6-12 hrs
[15] = tested on: Plasmodium falciparum; assay: Antimalarial activity against blood stage asynchronous Plasmodium falcipuram 3D7 assessed as suppression of parasite reproduction by measuring parasitemia at 10 nM incubated for 24 hrs followed by compound washout and replacement with fresh medium without compounds and measured after 4 days by flow cytometry; assay type: functional
[16] = tested on: Plasmodium falciparum; assay: Antimalarial activity against synchronized Plasmodium falcipuram 3D7 infected in human RBC assessed as ring stage parasite killing at 40 nM treated […] and incubated for 12 hrs followed by compound washout and replacement with fresh medium without compounds and measured at 50 hrs post infection by Geimsa staining based microscopy; assay type: functional, organism-based
[17] = tested on: Plasmodium falciparum; assay: Antimalarial activity against synchronized Plasmodium falcipuram 3D7 infected in human RBC assessed as irreversible inhibition of parasite growth at ring stage at 40 nM treated at 5 to 17 hpi incubated for 12 hrs followed by compound washout and replacement with fresh medium without compounds and measured after 4 days by flow cytometry; assay type: functional, organism-based
[18] = tested on: Plasmodium falciparum; assay: Antimalarial activity against synchronized Plasmodium falcipuram 3D7 infected in human RBC assessed as irreversible inhibition of parasite growth at schizont stage at 40 nM treated 29 to 41 hpi incubated for 12 hrs followed by compound washout and replacement with fresh medium without compounds and measured after 4 days by flow cytometry; assay type: functional, organism-based
[19] = tested on: Plasmodium falciparum; assay: Inhibition of Plasmodium falcipuram HDAC assessed as effect on parasite histone deacetylation level at 5 to 20 nM incubated for 4 hrs by Western blot analysis; settings: dose 5-20 nM
[20] = In vivo inhibition of C-terminal glmS fused HDAC1 in Plasmodium falcipuram 3D7 assessed as inhibition of parasite growth incubated for 4 hrs followed by compound washout and replacement with fresh medium with compounds measured after 68 hrs by SYBR Green I staining based fluorescence analysis; assay type: functional, organism-based, Plasmodium falciparum
[21] = In vivo inhibition of C-terminal TY1 fused HDAC1 in Plasmodium falcipuram 3D7 assessed as inhibition of parasite growth incubated for 4 hrs followed by compound washout and replacement with fresh medium with compounds measured after 68 hrs by SYBR Green I staining based fluorescence analysis; assay type: functional, organism-based, Plasmodium falciparum
[22] = tested on: Plasmodium falciparum; assay: In vivo inhibition of C-terminal glmS fused HDAC2 in Plasmodium falcipuram 3D7 assessed as inhibition of parasite growth incubated for 4 hrs followed by compound washout and replacement with fresh medium with compounds measured after 68 hrs by SYBR Green I staining based fluorescence analysis; assay type: functional, organism-based
[23] = tested on: Plasmodium falciparum; assay: In vivo inhibition of C-terminal TY1 fused HDAC2 in Plasmodium falcipuram 3D7 assessed as inhibition of parasite growth incubated for 4 hrs followed by compound washout and replacement with fresh medium with compounds measured after 68 hrs by SYBR Green I staining based fluorescence analysis; assay type: functional, organism-based
[24] = tested on: Plasmodium falciparum; assay: Inhibition of Plasmodium falcipuram recombinant HDAC1 using HDAC-Glo I/II as substrate at 50 to 800 nM preincubated for 90 mins by luminescence based microplate reader analysis; settings: dose 50-800 nM
[25] = tested on: Plasmodium falciparum; assay: In vivo inhibition of C-terminal glmS fused HDAC1 in Plasmodium falcipuram 3D7 assessed as inhibition of parasite growth by measuring downregulation of RBC invasion-related genes expression level by RNA-seq analysis; assay type: functional, organism-based
[26] = tested on: Plasmodium falciparum; assay: In vivo inhibition of C-terminal TY1 fused HDAC1 in Plasmodium falcipuram 3D7 assessed as inhibition of parasite growth by measuring downregulation of RBC invasion-related genes expression level by RNA-seq analysis; assay type: functional, organism-based
[27] = Cmax in BALB/c mouse at 5 mg/kg, ip measured upto 24 hrs by LC-MS/MS analysis; assay type: ADME, organism-based; set-up: route intraperitoneal, dose 5 mg/kg, time <=24; settings: in vivo
[28] = Tmax in BALB/c mouse at 5 mg/kg, ip measured after upto 24 hrs by LC-MS/MS analysis; assay type: ADME, organism-based; settings: in vivo
[29] = Apparent clearance in BALB/c mouse at 5 mg/kg, ip measured after upto 24 hrs by LC-MS/MS analysis; assay type: ADME, organism-based; settings: in vivo, read-out: CLz/F (converted)
[30] = Apparent volume of distribution in BALB/c mouse at 5 mg/kg, ip measured after upto 24 hrs by LC-MS/MS analysis; assay type: ADME, organism-based; settings: in vivo, read-out: Vz/F

## Cn1cc(CNCC2CCN(c3ncc(C(=O)NO)cn3)CC2)c2ccccc21 [QUISINOSTAT]
[1]
  Activity: inactive
[2]
  pIC50: 8.60
[3]
  pIC50: 8.40
[4]
  pIC50: 8.15
[5]
  IC50 at 72 h: 30 nM
[6]
  IC50 at 72 h: 60 nM
[7]
  t1/2: 629.7 min
[8]
  pIC50: 8.76
[9]
  Activity: Toxic
[10]
  Activity: Toxic
[11]
  Activity: Toxic
[12]
  Activity: 0.05%
[13]
  Activity: Active
[14]
  Activity: Dose dependent effect
[15]
  Activity: 100%
[16]
  Activity: Active
[17]
  Activity: Active
[18]
  Activity: Active
[19]
  Activity: Active
[20]
  pIC50: 8.25
[21]
  pIC50: 7.72
[22]
  inhibition: Active
[23]
  inhibition: Active
[24]
  inhibition: Active
[25]
  inhibition: Active
[26]
  inhibition: Active
[27]
  Cmax: 89 ng/mL
[28]
  Tmax: 4.8 min
[29]
  CL/F: 462 mL/min/kg
[30]
  Vd/F: 245 L/kg
